Earlier results on two compounds are cited in PMC10025373, “Red ginseng dietary fiber promotes probiotic properties of Lactiplantibacillus plantarum and alters bacterial metabolism” (Frontiers in Microbiology, 2023).

Data set [1] has as its system actomyosin motor. Also on record: method as in Komatsu et al., 2004. The following applies: ref Komatsu et al., 2004.
The test system of data set [2] is Staphylococcus aureus. The following applies: ref Lens et al., 2016.
The subject of data set [3] is E. coli. The following applies: ref Lens et al., 2016.

`CCCCCCO` [Hexanol]: the “function of the actomyosin motor” value in data set [1] is “modulates the function of the actomyosin motor”.

As to `CCCCOC(C)=O` [butyl acetate], the antimicrobial activity entry in data set [2] and in data set [3] was “antimicrobial activity” each time.
